Assay results reported in patent US12611492B2, “Local drug delivery devices and methods for treating cancer” (Massachusetts Institute of Technology, priority 2013, dated 2026).

System: pancreatic xenografts
Conditions: NOD/SCID/γc, mouse, in vivo, iv
Description: To quantify intratumoral drug distribution, serial sections of the tumor perpendicular to the PED were imaged by quantitative confocal microscopy. […] Tissue penetration within the tumor was quantified by line scans starting from the entry site for paclitaxel (PED—tumor/device interface; IV—vessels).

In the case of `CC(=O)O[C@H]1C(=O)[C@@]2(C)[C@H]([C@H](OC(=O)c3ccccc3)[C@]3(O)C[C@H](OC(=O)[C@H](O)[C@@H](NC(=O)c4ccccc4)c4ccccc4)C(C)=C1C3(C)C)[C@]1(OC(C)=O)CO[C@@H]1C[C@@H]2O` [paclitaxel], the “paclitaxel presence radius around the vessels” value is reported as ≤ 10 micron.
